Measurements from the supplement of paper PMC10307832.

Experiments:
Assay in all cases: relative viability (nuclei count vs DMSO), 5 days (fraction); higher = more cells survive
VX-11e + Olaparib = compound: CC1=CN=C(N=C1C2=CNC(=C2)C(=O)N[C@H](CO)C3=CC(=CC=C3)Cl)NC4=C(C=C(C=C4)F)Cl [VX-11e] + O=C(c1cc(Cc2n[nH]c(=O)c3ccccc23)ccc1F)N1CCN(C(=O)C2CC2)CC1 [Olaparib] (partner 8 µM)
Procedure, shortened: (§1)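 For relative viability, nuclei counts in treated wells were divided by those in vehicle wells. Lung cancer cell lines had been pin-tool dosed in 1536-well plates the day after seeding and cultured for 5 days, then fixed and stained in one step (final 0.05% Triton X-100, 1% formaldehyde, 1 ug/ml Hoechst) and imaged at 4×. Doses were one drug alone or a fixed anchor-drug dose plus five library-drug doses (not always all listed) in √10 steps, and values are duplicate-plate medians.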

VX-11e + Linsitinib = compound: CC1=CN=C(N=C1C2=CNC(=C2)C(=O)N[C@H](CO)C3=CC(=CC=C3)Cl)NC4=C(C=C(C=C4)F)Cl [VX-11e] + C[C@]1(O)C[C@@H](c2nc(-c3ccc4ccc(-c5ccccc5)nc4c3)c3c(N)nccn32)C1 [Linsitinib] (partner 1 µM)
Procedure, shortened: as §1

VX-11e + Vorinostat = compound: CC1=CN=C(N=C1C2=CNC(=C2)C(=O)N[C@H](CO)C3=CC(=CC=C3)Cl)NC4=C(C=C(C=C4)F)Cl [VX-11e] + O=C(CCCCCCC(=O)Nc1ccccc1)NO [Vorinostat] (partner 1 µM)
Procedure, shortened: as §1

VX-11e + Pemetrexed = compound: CC1=CN=C(N=C1C2=CNC(=C2)C(=O)N[C@H](CO)C3=CC(=CC=C3)Cl)NC4=C(C=C(C=C4)F)Cl [VX-11e] + Nc1nc2[nH]cc(CCc3ccc(C(=O)N[C@@H](CCC(=O)O)C(=O)O)cc3)c2c(=O)[nH]1 [Pemetrexed] (partner 0.2 µM)
Procedure, shortened: as §1

Row | Cell Line | relative viability (VX-11e + Olaparib; first compound 0.04 µM) | relative viability (VX-11e + Olaparib; first compound 0.1265 µM) | relative viability (VX-11e + Olaparib; first compound 0.4 µM) | relative viability (VX-11e + Olaparib; first compound 1.265 µM) | relative viability (VX-11e + Olaparib; first compound 4 µM) | relative viability (VX-11e + Linsitinib; first compound 0.04 µM) | relative viability (VX-11e + Linsitinib; first compound 0.1265 µM) | relative viability (VX-11e + Linsitinib; first compound 0.4 µM) | relative viability (VX-11e + Linsitinib; first compound 1.265 µM) | relative viability (VX-11e + Linsitinib; first compound 4 µM) | relative viability (VX-11e + Vorinostat; first compound 0.04 µM) | relative viability (VX-11e + Vorinostat; first compound 0.1265 µM) | relative viability (VX-11e + Vorinostat; first compound 0.4 µM) | relative viability (VX-11e + Vorinostat; first compound 1.265 µM) | relative viability (VX-11e + Vorinostat; first compound 4 µM) | relative viability (VX-11e + Pemetrexed; first compound 0.04 µM) | relative viability (VX-11e + Pemetrexed; first compound 0.1265 µM) | relative viability (VX-11e + Pemetrexed; first compound 0.4 µM) | relative viability (VX-11e + Pemetrexed; first compound 1.265 µM) | relative viability (VX-11e + Pemetrexed; first compound 4 µM)
1 | NCI-H1734 | 0.632 | 0.601 | 0.607 | 0.542 | 0.365 | 0.797 | 0.789 | 0.814 | 0.837 | 0.536 | 0.71 | 0.779 | 0.593 | 0.449 | 0.341 | 0.428 | 0.398 | 0.445 | 0.306 | 0.315
2 | NCI-H1755 | 0.903 | 0.853 | 0.874 | 0.942 | 0.747 | 1.03 | 0.976 | 0.95 | 0.94 | 0.553 | 0.795 | 0.686 | 0.782 | 0.764 | 0.598 | 0.449 | 0.326 | 0.409 | 0.424 | 0.396
3 | NCI-H1793 | – | 0.788 | – | 0.751 | 0.313 | – | 0.687 | – | 0.818 | 0.514 | – | 0.618 | – | 0.569 | 0.257 | – | 0.715 | – | 0.591 | 0.259
4 | NCI-H1915 | 0.277 | 0.23 | 0.305 | 0.225 | 0.231 | 1.21 | 1.12 | 1.19 | 1.04 | 0.857 | 0.469 | 0.493 | 0.526 | 0.607 | 0.43 | 0.484 | 0.509 | 0.477 | 0.381 | 0.388
5 | NCI-H1944 | 0.405 | 0.417 | 0.376 | 0.345 | 0.328 | 1.08 | 1.09 | 0.998 | 0.862 | 0.552 | 0.492 | 0.506 | 0.441 | 0.478 | 0.408 | 0.602 | 0.77 | 0.382 | 0.505 | 0.374
6 | NCI-H1975 | 0.84 | 0.808 | 0.806 | 0.803 | 0.31 | 0.841 | 1.09 | 0.991 | 0.959 | 0.367 | 0.736 | 0.724 | 0.664 | 0.677 | 0.465 | 0.307 | 0.276 | 0.295 | 0.27 | 0.258
7 | NCI-H1993 | – | 1.13 | 0.895 | 0.879 | 0.785 | – | 0.757 | – | 0.769 | 0.666 | – | 0.819 | 0.505 | 0.47 | 0.623 | – | 0.537 | 0.457 | 0.58 | 0.521
8 | NCI-H2009 | 0.684 | 0.635 | 0.805 | 0.769 | 0.378 | 1.17 | 1.11 | 1.18 | 1.09 | 0.259 | 0.794 | 0.604 | 0.638 | 0.791 | 0.233 | 1.08 | 1.03 | 1.12 | 1.1 | 0.673
9 | NCI-H2023 | 0.541 | 0.45 | 0.507 | 0.475 | 0.346 | 0.727 | 0.692 | 0.596 | 0.362 | 0.283 | 0.709 | 0.604 | 0.289 | 0.318 | 0.209 | 0.224 | 0.241 | 0.225 | 0.145 | 0.157
10 | NCI-H2085 | 0.835 | 0.758 | 0.709 | 0.706 | 0.598 | 0.987 | 0.818 | 0.834 | 0.9 | 0.649 | 0.826 | 0.707 | 0.689 | 0.449 | 0.584 | 0.862 | 0.873 | 0.81 | 0.635 | 0.583
11 | NCI-H2087 | 0.646 | 0.659 | – | 0.531 | 0.252 | 0.949 | 1.1 | 0.902 | 0.803 | 0.302 | 0.944 | 0.644 | – | 0.495 | 0.239 | 0.691 | 0.613 | – | 0.64 | 0.544
12 | NCI-H2126 | 0.885 | 0.874 | 0.864 | 0.879 | 0.751 | – | 0.735 | 0.689 | 0.677 | 0.556 | 0.512 | 0.686 | 0.352 | 0.474 | 0.52 | 0.554 | 0.621 | 0.399 | 0.567 | 0.517
13 | NCI-H2228 | 0.681 | 0.631 | 0.362 | 0.417 | 0.21 | 0.577 | 0.692 | 0.489 | 0.308 | 0.214 | 0.646 | 0.66 | 0.617 | 0.58 | 0.399 | 0.337 | 0.371 | 0.363 | 0.311 | 0.183
14 | NCI-H2347 | 0.585 | 0.6 | 0.636 | 0.518 | 0.36 | 1.07 | 0.927 | 0.798 | 0.7 | 0.496 | 0.514 | 0.688 | 0.5 | 0.349 | 0.316 | 0.412 | 0.442 | 0.423 | 0.389 | 0.368
15 | NCI-H2405 | 0.961 | 0.814 | 0.333 | 0.873 | 0.379 | 0.933 | 0.787 | – | 0.817 | 0.272 | 0.993 | 0.866 | 1.22 | 0.918 | 0.565 | 1.09 | 0.957 | 0.678 | 0.989 | 0.501
16 | NCI-H3122 | 0.717 | 0.661 | 0.689 | 0.558 | 0.468 | 0.971 | 1.01 | 0.974 | 0.929 | 0.58 | 0.85 | 0.885 | 0.684 | 0.987 | 0.589 | 0.202 | 0.205 | 0.162 | 0.171 | 0.152
17 | PC-3 [JPC-3] | 1.23 | 1.09 | 1.09 | 1.19 | 0.901 | 1.08 | 0.959 | 0.99 | 1.09 | 0.822 | 0.752 | 0.708 | 1.01 | 0.646 | 0.755 | 1.08 | 1.09 | 1.12 | 0.976 | 0.846
